Test system: peripheral blood mononuclear cells (PBMC)
Experiment: qPCR (TaqMan) measurement of mRNA expression in PBMC treated with compound A
Format: cell-based, human
Conditions: 30 nM; untreated cells = 1; corrected by 18S rRNA

Compound: CCC(O)C(C)C1OC1CC(C)(O)/C=C/C=C(\C)C1OC(=O)CC(O)CCC(C)(O)C(OC(=O)N2CCN(C3CCCCCC3)CC2)/C=C/C1C (stereo not shown) [E7107, (8E,12E,14E)-7-((4-Cycloheptylpiperazin-1-yl)carbonyl)oxy-3,6,16,21-tetrahydroxy-6,10,12,16,20-pentamethyl-18,19-epoxytricosa-8,12,14-trien-11-olide]
- ZCCHC8 mRNA expression level (qPCR): 0.13
